According to ChEMBL document CHEMBL3865826, “Synthesis and biological evaluation of a series of non-hemiacetal ester derivatives of artemisinin” (Eur J Med Chem, 2016):

Legend:
[1] = Growth inhibition of human TK10 cells measured after 24 hrs by SRB assay; assay type: functional, cell-based; details: TK-10, 24 h
[2] = Growth inhibition of human UACC62 cells measured after 24 hrs by SRB assay; assay type: functional, cell-based; details: UACC-62, 24 h
[3] = Growth inhibition of human MCF7 cells measured after 24 hrs by SRB assay; assay type: functional, cell-based; details: MCF7, 24 h
Plasmodium falciparum [4] = test: Antiplasmodial activity against chloroquine-sensitive asexual erythrocyte stage form Plasmodium falciparum NF54 measured after 48 hrs by pLDH assay; assay type: functional; details: NF54, 48 h
Plasmodium falciparum [5] = test: Antiplasmodial activity against chloroquine-resistant asexual erythrocyte stage form Plasmodium falciparum Dd2 measured after 48 hrs by pLDH assay; assay type: functional; details: Dd2, 48 h
[6] = Resistance index, ratio of IC50 for chloroquine-resistant asexual erythrocyte stage form Plasmodium falciparum Dd2 to IC50 for chloroquine-sensitive asexual erythrocyte stage form Plasmodium falciparum NF54; assay type: functional
[7] = Cytotoxicity against human WI38 cells assessed as reduction in cell viability measured after 48 hrs by SRB assay; assay type: toxicity, cell-based, WI-38
[8] = Cytotoxicity against CHO cells assessed as reduction in cell viability measured after 48 hrs by MTT assay; assay type: toxicity, cell-based, Cricetulus griseus; details: Chinese hamster
[9] = Selectivity index, ratio of IC50 for human WI38 cells to IC50 for chloroquine-sensitive asexual erythrocyte stage form Plasmodium falciparum NF54; assay type: toxicity, cell-based, WI-38; details: read-out: Ratio IC50
[10] = Selectivity index, ratio of IC50 for CHO cells to IC50 for chloroquine-sensitive asexual erythrocyte stage form Plasmodium falciparum NF54; assay type: toxicity, cell-based; details: hamster, read-out: Ratio IC50
MCF7 = test: Selectivity index, ratio of IC50 for human WI38 cells to IC50 for human MCF7 cells; assay type: functional
CHO = test: Selectivity index, ratio of IC50 for CHO cells to IC50 for human MCF7 cells; assay type: functional
[11] = Selectivity index, ratio of IC50 for human MCF7 cells to IC50 for chloroquine-resistant asexual erythrocyte stage form Plasmodium falciparum Dd2; assay type: functional
[12] = Thermal stability of the compound assessed as melting point by thermogravimetric analysis; assay type: physicochemical
[13] = Selectivity index, ratio of IC50 for human UACC62 cells to IC50 for chloroquine-resistant asexual erythrocyte stage form Plasmodium falciparum Dd2; assay type: functional, UACC-62

SMILES | IC50 [1] [µM] | IC50 [2] [µM] | IC50 [3] [µM] | IC50 (Plasmodium falciparum [4]) [nM] | IC50 (Plasmodium falciparum [5]) [nM] | Ratio IC50 [6] | IC50 at 48 h [7] [µM] | IC50 at 48 h [8] [µM] | selectivity ratio [9] | selectivity ratio [10] | Ratio IC50 (MCF7) | Ratio IC50 (CHO) | Ratio IC50 [11] | Tm [12] [°C] | Ratio IC50 [13]
C=C1C(=O)O[C@@H]2C3O[C@]3(C)CC/C=C(\C)CC[C@@H]12 (stereo partly specified) | 6.4 | 15 | 5.8 |  |  |  |  |  |  |  |  |  |  |  | 
CCCCCC(=O)OCC1(C)O[C@@H]2O[C@]3(C)CC[C@H]4[C@H](C)CC[C@@H]1[C@@]24OO3 (stereo partly specified) | > 100 | > 100 | 47.5 | 60.1 | 43.2 | 0.7 | > 100 | > 100 | > 1660 | > 1660 | >2 | >2 | 1100 |  | 
C[C@H]1[C@H](OC(=O)CCC(=O)O)O[C@@H]2O[C@@]3(C)CC[C@H]4[C@H](C)CC[C@@H]1[C@@]24OO3 [ARTESUNATE] |  |  |  | 8 | 7.5 | 0.9 | > 100 | > 100 | > 12500 | > 12500 |  |  |  | 134.7 | 
C[C@@H]1CC[C@H]2C(C)(COC(=O)c3ccco3)O[C@@H]3O[C@]4(C)CC[C@@H]1[C@]32OO4 (stereo partly specified) | > 100 | > 100 | > 100 | 9.2 | 3.7 | 0.4 | > 100 | > 100 | > 10900 | > 10900 |  |  |  | 177.3 | 
CC[C@H]1CN2CCc3cc(OC)c(OC)cc3[C@@H]2C[C@@H]1C[C@H]1NCCc2cc(OC)c(OC)cc21 [EMETINE] |  |  |  |  |  |  | 0.05 | 0.29 |  |  |  |  |  |  | 
CC(=O)Oc1ccccc1C(=O)OCC1(C)O[C@@H]2O[C@]3(C)CC[C@H]4[C@H](C)CC[C@@H]1[C@@]24OO3 (stereo partly specified) | > 100 | 19 | 10.5 | 2.7 | 4.3 | 1.6 | > 100 | > 100 | > 37000 | > 37000 | >10 | >10 | 2442 | 175.2 | 4419
CO[C@H]1O[C@@H]2O[C@@]3(C)CC[C@H]4[C@H](C)CC[C@@H]([C@H]1C)[C@@]24OO3 [ARTEMETHER] |  |  |  | 3.8 | 2.3 | 0.6 |  | > 100 |  | > 26300 |  |  |  | 186 | 
CCCC(=O)OCC1(C)O[C@@H]2O[C@]3(C)CC[C@H]4[C@H](C)CC[C@@H]1[C@@]24OO3 (stereo partly specified) | > 100 | > 100 | 53.6 | 16.9 | 6.9 | 0.4 | > 100 | > 100 | > 5920 | > 5920 | >2 | >2 | 7768 |  | 
C[C@H]1[C@@H](O)O[C@@H]2O[C@@]3(C)CC[C@H]4[C@H](C)CC[C@@H]1[C@@]24OO3 [ARTENIMOL] |  |  |  | 2.2 | 1.2 | 0.6 |  | > 100 |  | > 45500 |  |  |  | 160 | 
Cc1ccsc1C(=O)OCC1(C)O[C@@H]2O[C@]3(C)CC[C@H]4[C@H](C)CC[C@@H]1[C@@]24OO3 (stereo partly specified) | > 100 | 13.9 | 6.8 | 7.2 | 7.1 | 1 | > 100 | > 100 | > 13900 | > 13900 | >15 | >15 | 958 |  | 1958
